One data set has as its system HepG2 cells. The data set can be described thus: cells. Particulars: Homo sapiens, HepG2, 16 h, read-out: IC50, XTT cell proliferation assay. How it is done:
HepG2 cells (ATCC HB-8065) were maintained in monolayer culture at 37° C. and 5% CO2 in Dulbecco's Modified Eagle's Medium supplemented with 10% fetal bovine serum, non-essential amino acids, 2 mM L-glutamine, and 1% penicillin-streptomycin. […] The cells were washed with Dulbecco's PBS twice, 150 μL of XTT working solution was added to each well, followed by 3-h incubation. Absorbance at 475 nm (test wavelength) and 660 nm (reference wavelength) was read with a microplate reader. Experiments were performed in triplicate and repeated twice. IC50 values were calculated using GraphPad prism 5.
(Tetrazolium assays rely on reduction of a dye to a coloured formazan, in cell work by metabolically active cells.)

The test system of another data set is MRSA ATCC 27660. The data set can be described thus: Mouse peritonitis model of MRSA infection. The format is in vivo, mice. The method, then:
We evaluated several compounds in in vivo mouse infection models, as well as in pharmacokinetic (PK) studies in mice (Table 1). The in vivo efficacy was determined using the rapid mouse peritonitis model of infection, in which the end point is death or survival in 48 hours. We initially dosed the compounds intravenously (iv) at a single dose level. If the compound has good in vivo efficacy after iv administration, we then evaluated efficacy at five dose levels. We also investigated in vivo efficacy after oral (po) administration.
Groups (n=6/group) of mice were infected with MRSA (0.5 mL of ATCC 27660 at a final concentration of 5×10^7 CFU/mL in 5% porcine mucin) intraperitoneally (ip). Following infection, mice were given iv doses by tail vein injection of compound 2, vancomycin (5 mg/kg, positive control), or vehicle at 30 min and 4.5 h after infection. The number of surviving mice was monitored for 48 h. The negative control (vehicle) typically results in the death of all mice. Quinazolinone 2 was dissolved in saline, sterile-filtered, and administered at doses of 2.5, 5, 7.5, 10, 20, and 30 mg/kg. The ED50 value was calculated using GraphPad prism 5.

Data set [1] deals with S. epidermidis ATCC 35547. In words: MIC, CLSI broth microdilution, S. epidermidis ATCC 35547. The format is cell-based. How it is done:
(§1) MICs were evaluated following the CLSI microdilution method in BBL™ Mueller-Hinton II broth (Wikler et al., Clinical Laboratory Standards Institute Document M7-A7, 29 (2009)). Briefly, two-fold serial dilutions of compound were prepared in triplicate in 96-well plates and inoculated with 5×10^5 cfu/mL of the bacterial suspension. Plates were incubated at 37° C. for 16-20 hours.
For orientation: In broth dilution the organism is exposed to a series of concentrations in liquid medium.

The test system of data set [2] is E. coli S30 extract system. The data set can be described thus: In vitro translation assay (E. coli S30 extract, β-galactosidase). Particulars: up to 64 μg/mL. The format is biochemical. From the text:
For in vitro translation, the E. coli S30 Extract System for Circular DNA was used to set up the reactions using plasmid pCP19 containing the lacZ gene for β-galactosidase. Reaction mixtures were supplemented with two-fold dilutions of antibiotic 2 and the β-Galactosidase Enzyme Assay System with Reporter Lysis Buffer was used to quantify the amount of β-galactosidase translated by measuring absorbance at 420 nm. For in vitro transcription, a TranscriptAid T7 High Yield Transcription kit was used with a pET24a/dacB DNA construct under the T7 promoter. The purified plasmid was linearized using the restriction endonuclease XhoI and then purified according to the manufacturer's instructions. A series of samples were prepared and supplemented with two-fold dilutions of antibiotic 2. Samples were analyzed by running on a denaturing 1% formaldehyde agarose gel and stained with ethidium bromide to visualize RNA. Intensities of the bands were quantified and compared to the control to determine the amount of transcription occurring in the presence of 2.

A further data set deals with S. aureus VRS1. In words: MIC, CLSI broth microdilution, S. aureus VRS1. It is filed as cell-based, Staphylococcus aureus. The method, then: as §1
Data set [3] is described as follows: Metabolic stability in human S9. Particulars: human S9, 2 μM. The format is in vitro ADME. The method, then: Aliquots were taken at 0, 5, 10, 20, 30, 40, and 60 min, and mixed with two volumes of acetonitrile containing internal standard. The precipitated protein was centrifuged at 20,000 g for 15 min, and the supernatant was analyzed by reversed-phase UPLC.

The subject of a further data set is S. aureus NRS128. The data set can be described thus: MIC, CLSI broth microdilution, S. aureus NRS128. It is filed as cell-based, Staphylococcus aureus. To be noted: Table 2.1, S. aureus NRS128. How it is done:
as §1

The nature of a further data set: Plasma stability. The format is in vitro ADME. Particulars: mouse, 37° C. How it is done:
Compound 2 (20 μM) was incubated in blank mouse plasma at 37° C. and aliquots were taken at specific time points and quenched with two volumes of acetonitrile containing internal standard. Samples were centrifuged and analyzed by reverse-phase UPLC.

Data set [4] in a line: Plasma protein binding, rapid equilibrium dialysis, human. To be noted: humans, 10 μM, 6 h dialysis. It is filed as in vitro ADME. How it is done: Aliquots from both chambers were quenched with 1:2 v/v acetonitrile containing an internal standard. The samples were concentrated to dryness on a miVac concentrator and the residue resuspended in 50:50 acetonitrile/water. Samples were analyzed by reverse-phase ultraperformance liquid chromatography (UPLC) with UV/Vis detection. Plasma protein binding of quinazolinone 2 was 98.0±0.04% in mice and 96.5±0.70% in humans.
Background: Equilibrium dialysis compares concentrations on both sides of a semipermeable membrane.

The test system of the next data set is red blood cells. In words: Hemolysis. It is filed as cell-based, human. Particulars: at 50 μg/mL. The method, then:
Fresh heparinized human blood was washed three times by centrifugation at 1,200 g for 10 min in 100 mM PBS, pH 7.4. A 10% red-blood cell (RBC) suspension was prepared in PBS. Antibiotic 2 at 0.5, 5, and 50 μg/mL was added to aliquots of the 10% RBC suspension and incubated at 37° C. A positive control of 0.2% Triton was used. Samples were centrifuged at 1,200 g for 10 min and the supernatant measured for absorbance at 541 nm.

“Also recorded” adds a separate entry of the source.

In the case of `N#Cc1ccc(/C=C/c2nc3ccccc3c(=O)n2-c2cccc(C(=O)O)c2)cc1.[Na]` [Compound 2, Sodium (E)-3-(3-carboxyphenyl)-2-(4-cyanostyryl)quinazolin-4(3H)-one], in the data set on HepG2 cells, the IC50 turned out to be 63 ± 1 µg/mL. The “In Vivo Efficacy (survived/total mice)” value in the data set on MRSA ATCC 27660 (10 mg/kg iv at 30 min and 4.5 hr after infection, n = 6, 48 h) is given as 5/6 @ 10 mg/kg. Moreover, the ED50 in the data set with MRSA ATCC 27660 (Staphylococcus aureus, iv administration, dose giving survival of 50% of the animals, read-out: Median effective dose (ED50)) was 10 mg/kg. The minimum inhibitory concentration (MIC) in data set [1] (Staphylococcus epidermidis, ATCC35547) was determined as 1 µg/mL; in the data set with S. aureus VRS1 (Staphylococcus aureus, VRS1) it was 16 µg/mL. The In vitro AB activity (MIC) in [1] (Table 2.1, S. epidermidis ATCC 35547) is 1 µg/mL; with S. aureus VRS1 (Table 2.1, S. aureus VRS1), 16 µg/mL; in the data set on S. aureus NRS128, 4 µg/mL. In addition, the “Inhibition of in vitro translation” value in data set [2] was “did not show any inhibition; also recorded: No inhibition”. For the same compound, the “Compound remaining after 1-h incubation” value in data set [3] is given as 100%. Besides, the half-life at 20 μM in “Plasma stability” was 141 h. This compound also gave a Plasma protein binding in data set [4] of 96.5±0.70%. In addition, in the data set with red blood cells, the “Hemolysis of red blood cells” value is on record as below 1%.

As a reminder, the ED50 is the dose at which the effect has come halfway, by size or by number of responders. In general, MIC refers to the lowest concentration that inhibits growth of the organism. A high value points to a need for much substance. What is called half-life is the time in which the quantity being followed falls by half. A low value points to rapid decline.

The values are drawn from patent US10329262B2, “Quinazolinone antibiotics” (priority 2013, dated 2019).
